Tested on: HSV thymidine kinase (TK) gene in cells containing an entrapment mutation in the Hesx1 gene
Experiment: TK gene loss, selection in gancyclovir
Format: cell-based, mouse
Conditions: Table 2
Experimental: Two types of experiments were performed to assess whether frequencies of LOH were transiently or stably elevated following carcinogen exposure. First, cells were treated with MNU and HU as before and the percentages of cells having undergone LOH were determined by selection in 2.0 mg/ml G418 at various times thereafter. Over 90% of the total LOH was induced within 24 hours of MNU and HU exposure, and only minimal additional LOH occurred subsequently (FIG. 14). Second, it was asked whether LOH frequencies at a second locus were elevated in cells having undergone LOH at the entrapment locus. For this, a Herpes Simplex Virus thymidine kinase (TK) gene was introduced into cells containing an entrapment allele of the Hesx1 gene and frequencies of TK gene loss were measured by selection in gangcyclovir. These studies utilized the cell line containing the TK gene (C8TK1) and derivatives of C8TK1 that had undergone LOH at the entrapment locus either spontaneously (C8TK1sN) or after treatment with either MNU (C8TKmN) or HU (C8TK1hN). […] Moreover, the stability of the TK gene following carcinogen treatment was largely unaffected by prior selection for LOH involving the entrapment locus. Similar results were also obtained with a second TK-containing line (C8TK2, Table 4). Together these experiments indicate that carcinogen-induced LOH results from an acute response rather than from a stably altered cellular phenotype.
Serially diluted cells were plated onto 150 mm plates containing drug-free media and allowed to attach overnight. Unattached cells were removed and media containing the indicated concentrations of methyl-nitrosourea, hydroxyurea, ethidium bromide, doxorubicin, methotrexate, diepoxybutane, or mitomycin C was put onto cells for 4 hours (or cells were exposed to ultraviolet light in the absence of media and allowed to recover in drug-free media for 4 hours). Cells were then rinsed twice with drug-free media and selection media containing 0.0, 0.3, or 2.0 mg/ml G418 was put onto cells. After 12 days of selection, the number of colonies surviving was counted and the frequency of colony formation was determined by dividing the number of colonies obtained from 2.0 mg/ml G418 selection to that obtained from parallel experiments with 0.3 mg/ml G418 selection. TK gene loss was assessed following selection in media containing 2 μg/ml gancyclovir.
Table 2. […] The HSV thymidine kinase (TK) gene was introduced into cells containing an entrapment mutation in the Hesx1 gene. A TK expressing (TK^+) clone (C8TK1) was used to select for cells that had undergone LOH at the entrapment locus (EL) spontaneously (C8TK1sN) or following treatment with HU (C8TK1hN) or MNU (C8TK1mN). The frequencies of TK gene loss were compared in cells with and without prior selection for LOH at the entrapment locus and the differences were expressed as the indicated ratios.
Table 4. Carcinogen-induced LOH does generate genetically unstable cells. The HSV thymidine kinase (TK) gene was introduced into cells containing an entrapment mutation in the Hesx1 gene. A TK expressing (TK+) clone (C8TK2) was used to select for cells that had undergone LOH at the entrapment locus (EL) spontaneously (C8TK2sN) or following treatment with HU (C8TK2hN) or MNU (C8TK2mN). The frequencies of spontaneous TK gene loss (Treatment=none) or TK gene loss following treatment with HU or MNU were compared in cells with (EL^−/−) and without prior selection for LOH (EL^+/+) at the entrapment locus and the differences were expressed as the indicated ratios.

Row | SMILES | Ratio of Freq. TK loss (C8TK1sN and C8TK1hN, Treatment HU) | Freq. TK loss (clone C8TK1hN (EL LOH induced by HU), Treatment HU) | Freq. TK loss (clone C8TK1hN (EL LOH induced by HU, TK+ EL−/−), Treatment none) | Freq. TK loss (clone C8TK1sN (Spont. EL LOH), Treatment HU) | Freq. TK loss (clone C8TK1mN (EL LOH induced by MNU), Treatment MNU) | Freq. TK loss (clone C8TK1mN (EL LOH induced by MNU, TK+ EL−/−), Treatment none) | Freq. TK loss (clone C8TK1sN (Spont. EL LOH), Treatment MNU)
1 | NC(=O)NO [HU, hydroxyurea] | 1.7 | 3.9 × 10^−4 | 8.4 × 10^−5 | 2.3 × 10^−4 |  |  | 
2 | CN(N=O)C(N)=O [MNU, methyl-nitrosourea] |  |  |  |  | 4.7 × 10^−4 | 1.4 × 10^−5 | 2.6 × 10^−4

From patent US20100021895A1, “Vectors for Inducing Homozygous Mutations and Methods of Using Same” (priority 2006, published 2010)
